Source: patent publication US9346803B2 (Vanderbilt University, priority 2011, dated 2016)
Entries after “also recorded” stand apart in the source; their conditions may differ. One block for each compound: values may come before it.

Experiments:
[1] = system: COX-1; experiment: Screen against COX-1; format: biochemical; details: at concentrations greater than 100 μM
[2] = system: androgen receptor (AR); experiment: HeLa-cell androgen receptor (AR) luciferase reporter gene assay driven by DHT; format: cell-based; details: for AR agonism or antagonism (DHT stimulation of the AR): AR luciferase reporter gene assay; for androgen receptor antagonism: luciferase AR reporter gene assay driven by DHT, FIG. 11
From the text: Secondary screens involve one or more of: (a) a full-screen against all nine human recombinant AKR enzymes to ensure there are no-intended off-target effects; (b) a screen against COX-1 and COX-2 to reaffirm that compounds will not act as NSAIDs; and (c) a HeLa-cell androgen receptor (AR) reporter gene assay. The latter assay is used to determine whether lead compounds act as AR agonists or block 5α-DHT reporter gene activity by acting as androgen receptor antagonists.

[3] = system: LNCaP cells stably transfected with AKR1C3; experiment: Conversion of Δ4-androstene-3,17-dione to testosterone in LNCaP-AKR1C3 transfected cells; format: cell-based, human; details: 30 μM
From the text: Tertiary screens involve one or more of (d) expanded reporter gene assays to determine whether compounds act as agonists or antagonists of other steroid hormone receptors; (e) inhibition of the conversion of Δ^4-androstene-3,17-dione to testosterone in androgen receptor dependent prostate cancer cells (including, but not limited to LNCaP; available from the American type Culture Collection (ATCC), Manassas, Va., United States of America) stably transfected with AKR1C3; and (f) inhibition of growth of castrate-resistant prostate cancer cells in a murine xenograft model.

[4] = biological target: homogeneous recombinant AKR1C3 (Homo sapiens (Human), UniProt P42330); experiment: Inhibition of NADP+ dependent oxidation of S-tetralol catalyzed by AKR1C3; format: biochemical; details: S-tetralol substrate at Km
[5] = biological target: AKR1C1 (Homo sapiens (Human), UniProt Q04828); experiment: Inhibition of S-tetralol oxidation, AKR1C1; format: biochemical; details: for IC50: S-tetralol substrate at Km
From the text: Inhibitors were initially screened for an ability to block the NADP+ dependent oxidation of the artificial substrate S-tetralol catalyzed by AKR1C3. S-tetralol was used since it is also a substrate of the highly related AKR1C1 and AKR1C2 enzymes.
Initially, the ratios of IC50 values for AKR1C2 versus AKR1C3 were compared. High ratios were indicative of high selectivity for AKR1C3.
The latter assay is used to determine whether lead compounds act as AR agonists or block 5α-DHT reporter gene activity by acting as androgen receptor antagonists.

[6] = biological target: AKR1C2 (Homo sapiens (Human), UniProt P52895); experiment: Inhibition of S-tetralol oxidation, AKR1C2; format: biochemical; details: for IC50: S-tetralol substrate at Km
[7] = system: VCaP cells; experiment: Δ4-androstene-3,17-dione driven expression of PSA in VCaP cells; format: cell-based, human
[8] = system: VCaP cells in a murine xenograft model; details: Cai et al., 2011; cited from earlier work
[9] = biological target: AKR1C4 (Homo sapiens (Human), UniProt P17516); experiment: Inhibition of S-tetralol oxidation, AKR1C4; format: biochemical
AKR1C4, sequence (P17516 whole entry): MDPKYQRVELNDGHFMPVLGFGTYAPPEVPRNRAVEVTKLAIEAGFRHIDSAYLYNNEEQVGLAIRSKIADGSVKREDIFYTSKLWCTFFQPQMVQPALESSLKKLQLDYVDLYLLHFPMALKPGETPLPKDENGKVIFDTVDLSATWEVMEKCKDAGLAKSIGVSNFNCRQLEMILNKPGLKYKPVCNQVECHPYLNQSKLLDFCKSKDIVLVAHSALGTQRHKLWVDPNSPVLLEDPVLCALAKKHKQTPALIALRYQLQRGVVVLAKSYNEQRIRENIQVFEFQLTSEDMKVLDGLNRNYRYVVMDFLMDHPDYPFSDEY

homogeneous recombinant AKR1C3, sequence (P42330 whole entry): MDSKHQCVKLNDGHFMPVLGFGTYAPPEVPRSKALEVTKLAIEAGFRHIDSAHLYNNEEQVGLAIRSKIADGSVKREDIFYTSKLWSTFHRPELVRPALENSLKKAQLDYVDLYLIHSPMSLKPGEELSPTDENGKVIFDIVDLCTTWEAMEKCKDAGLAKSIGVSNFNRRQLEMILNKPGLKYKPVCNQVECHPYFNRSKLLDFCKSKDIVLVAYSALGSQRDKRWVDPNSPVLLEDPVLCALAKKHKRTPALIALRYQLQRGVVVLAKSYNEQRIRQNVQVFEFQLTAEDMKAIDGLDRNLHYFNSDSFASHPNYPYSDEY
AKR1C1, sequence (Q04828 whole entry): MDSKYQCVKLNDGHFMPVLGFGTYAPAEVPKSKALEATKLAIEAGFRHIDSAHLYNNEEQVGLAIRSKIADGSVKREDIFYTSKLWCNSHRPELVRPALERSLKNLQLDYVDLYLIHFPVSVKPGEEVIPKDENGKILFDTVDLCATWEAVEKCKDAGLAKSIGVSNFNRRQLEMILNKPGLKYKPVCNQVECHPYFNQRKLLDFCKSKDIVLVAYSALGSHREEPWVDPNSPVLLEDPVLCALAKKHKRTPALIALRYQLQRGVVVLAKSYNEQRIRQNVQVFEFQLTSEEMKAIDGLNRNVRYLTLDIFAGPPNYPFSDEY
AKR1C2, sequence (P52895 whole entry): as the sequence (Q04828 whole entry) above, with T38V, R47H, L54V, C87S, V151M, R170H, Q172L counted along it

Structure (SMILES): COc1ccc2c(c1)c(C)c(CCC(=O)NS(C)(=O)=O)n2C(=O)c1ccc(Cl)cc1 [Compound 3]
COX-1 inhibition [1]: did not inhibit COX-1 | AR agonism or antagonism (DHT stimulation of the AR) [2]: did not act as AR agonists or antagonists | androgen receptor antagonism [2]: lack of androgen receptor antagonism | conversion of Δ4-androstene-3,17-dione to testosterone [3]: completely blocked

IC50 [4]: 0.34 µM | IC50 [5]: 100 µM | IC50 [6]: 93 µM
Structure (SMILES): COc1ccc2c(c1)c(C)c(CCC(=O)NS(C)(=O)=O)n2C(=O)c1ccc(Cl)cc1 [drawing 38]

Structure (SMILES): COc1ccc2c(c1)c(CC(=O)O)c(C)n2C(=O)c1ccc(Cl)cc1 [indomethacin]
Δ4-androstene-3,17-dione driven expression of PSA [7]: blocked; also recorded: inhibition | AR dependent gene transcription and tumor growth in xenograft [8]: block AR dependent gene transcription and cell growth and proliferation of the tumor

Structure (SMILES): COc1ccc2c(c1)c(C)c(CCC(=O)O)n2C(=O)c1ccc(Cl)cc1 [Compound 2]
COX-1 inhibition [1]: did not inhibit COX-1 | AR agonism or antagonism (DHT stimulation of the AR) [2]: did not act as AR agonists or antagonists | androgen receptor antagonism [2]: lack of androgen receptor antagonism | conversion of Δ4-androstene-3,17-dione to testosterone [3]: completely blocked

IC50 [4]: 0.09 µM | IC50 [5]: 30.7 µM | IC50 [6]: 49.6 µM
Structure (SMILES): CCc1c(CCC(=O)O)n(C(=O)c2ccc(Cl)cc2)c2ccc(OC)cc12

IC50 [5]: 17.7 µM | IC50 [6]: 14.5 µM
Structure (SMILES): COc1ccc2c(c1)c(C)c(CCC(=O)O)n2C(=O)c1ccc(Cl)cc1 [drawing 37]

IC50 [4]: 0.12 µM | IC50 [5]: 100 µM | IC50 [6]: 40.7 µM
Structure (SMILES): COc1ccc2c(c1)c(CC(=O)O)c(C)n2C(=O)c1ccc(CCl)cc1

IC50 [4]: 0.74 µM | fold selectivity for AKR1C3 over AKR1C1 ([5]; number in parenthesis): > 135 fold | IC50 [6]: 81 µM | fold selectivity for AKR1C3 over AKR1C2 ([6]; number in parenthesis, ratio of IC50 values): 108 fold | fold selectivity for AKR1C3 over AKR1C4 ([9]; number in parenthesis): > 135 fold
Structure (SMILES): COc1ccc2c(c1)c(CC(=O)NS(=O)(=O)C(F)(F)F)c(C)n2C(=O)c1ccc(Cl)cc1

IC50 [6]: 35.7 µM
Structure (SMILES): COc1ccc2c(c1)c(CC(=O)O)c(C)n2C(=O)c1ccc(C(F)(F)F)cc1

IC50 ([9]; S-tetralol substrate at Km): 3.15 µM
Structure (SMILES): COc1ccc2c(c1)c1c(n2C(=O)c2ccc(Cl)cc2)CCC(C(=O)O)C1 (stereo not shown)

Structure (SMILES): COc1ccc2c(c1)c(CC(=O)NS(=O)(=O)C(F)(F)F)cn2C(=O)c1ccc(Cl)cc1 [Compound 1]
AR agonism or antagonism (DHT stimulation of the AR) [2]: did not act as AR agonists or antagonists | androgen receptor antagonism [2]: lack of androgen receptor antagonism

IC50 [4]: 0.16 µM
Structure (SMILES): COc1ccc2c(c1)c(CC(=O)O)c(C)n2C(=O)c1ccc(C)cc1
